# Assay results: US20230279002A1, “Polymorphs of Crystalline Forms of 3,10-dimethoxy-5,8,13,13a-tetrahydro-6H-isoquinolino[3,2-a]isoquinolin-9-yl 3-fluorobenzenesulfonate and Salts Thereof” (CVI Pharmaceuticals Limited, priority 2020, published 2023)
# Assays:
# Format in all cases: physicochemical
# [1] = TGA (Thermal Gravimetric Analysis) weight loss; conditions: for TGA weight loss (in words): room temperature to 120° C.
# Procedure: TGA (Thermal Gravimetric Analysis): Samples of compounds (4˜6 mg) were weighed into the pan, and heated under nitrogen purge using a ramp rate of 20° C./min over the range of 30° C.˜350° C.
# [2] = DVS (Dynamic Vapor Sorption) moisture sorption/desorption, hygroscopicity classification; conditions: 25 °C; for Change In Mass (%) - ref, Desorption / Change In Mass (%) - ref, Sorption / Change In Mass (%) - ref, Hysteresis: Cycle 1
# Procedure: DVS (Dynamic Vapor Sorption): Around 10-20 mg of samples were used to test its moisture sorption/desorption profiles at 25° C. under 0%˜95%˜0% relative humidity (RH) cycle using dm/dt: 0.01%/min equilibrium and a measurement step of 5% RH.
# Hygroscopicity Classification: Typical %-moisture gain as a function of increased RH was determined by DVS. Samples went through a dynamic test isothermally at 25° C. The test was divided into 2 processes, one was absorption process, the other was desorption process. RH ranged from 0% to 95% with 5% RH for each step, and when dm/dt<=0.01%, it was assumed the water sorption/desorption equilibrium is reached.
# [3] = Solid stability at 40° C./0% RH (closed) and 40° C./75% RH (open), HPLC; conditions: for 0 day % remaining / 5 day % remaining / 10 day % remaining: solid
# Procedure: (§1) Solid stability: 5 mg of 2a was weighed into scintillation vials sealed properly and stored at 40° C./0% RH(closed), 40° C./75% RH(open) under dark conditions to avoid the effect of light on stability. Samples were collected at day 0, 5 and 10 and analyzed by HPLC.
# Solid stability: 5 mg of compound was weighed into vials sealed properly and stored at 40° C./0% RH (closed), 40° C./75% RH (open) under dark conditions to avoid the effect of light. Samples were analyzed by HPLC at days 0, 7, and 21.
# as §1, with “stability of compound 1a:” for “stability:”, “compound were accurately” for “of 2a was”, “condition” for “conditions”, “should be” for “were”, “10 days” for “10”
# [4] = Solution stability in 0.1 N HCl, pH 4.5 buffer and pH 6.8 buffer at 25° C. and 37° C., HPLC; conditions: summary of the Examples
# Procedure: Solution stability: A stock solution of compound (1.0 mg/mL) in MeOH was diluted with 0.1 N HCl, pH 4.5 buffer (acetate) and pH 6.8 buffer to reach constant ionic strength of 0.15 M and the same final concentration (50 μg/mL, 40% MeOH).
# A stock solution of 1b and 3b (1.0 mg/mL) in MeOH was diluted with pH 6.8 buffer to reach constant ionic strength of 0.15M and the same final concentration (25 μg/mL, 40% […]).
# The solutions were stored at 25° C. and 37° C.
smiles,measurement,setting,value
COc1ccc2c(c1)CCN1Cc3c(ccc(OC)c3OS(=O)(=O)c3cccc(F)c3)C[C@H]21 [Compound 2a],Temperature until which there is no weight loss,[1]; DSC and TGA,about 150 °C
same,TGA weight loss (in words),[1],almost no weight loss
same,TGA weight loss (in words),[1]; listed as Hydrochloride salt of compound 1a,almost no weight loss
same,Hygroscopicity classification by DVS,[2],non-hygroscopic
same,"Change In Mass (%) - ref, Desorption",[2]; Target RH 0.0 %,−0.00505%
same,"Change In Mass (%) - ref, Sorption",[2]; Target RH 0.0 %,0.00011%
same,"Change In Mass (%) - ref, Desorption",[2]; Target RH 5.0 %,−0.0028%
same,"Change In Mass (%) - ref, Hysteresis",[2]; Target RH 5.0 %,−0.00426%
same,"Change In Mass (%) - ref, Sorption",[2]; Target RH 5.0 %,0.00146%
same,"Change In Mass (%) - ref, Desorption",[2]; Target RH 10.0 %,−0.00101%
same,"Change In Mass (%) - ref, Hysteresis",[2]; Target RH 10.0 %,−0.0046%
same,"Change In Mass (%) - ref, Sorption",[2]; Target RH 10.0 %,0.00359%
same,"Change In Mass (%) - ref, Desorption",[2]; Target RH 15.0 %,0.00000%
same,"Change In Mass (%) - ref, Hysteresis",[2]; Target RH 15.0 %,−0.00527%
same,"Change In Mass (%) - ref, Sorption",[2]; Target RH 15.0 %,0.00527%
same,"Change In Mass (%) - ref, Desorption",[2]; Target RH 20.0 %,0.00123%
same,"Change In Mass (%) - ref, Hysteresis",[2]; Target RH 20.0 %,−0.0055%
same,"Change In Mass (%) - ref, Sorption",[2]; Target RH 20.0 %,0.00673%
same,"Change In Mass (%) - ref, Desorption",[2]; Target RH 25.0 %,0.00247%
same,"Change In Mass (%) - ref, Hysteresis",[2]; Target RH 25.0 %,−0.00505%
same,"Change In Mass (%) - ref, Sorption",[2]; Target RH 25.0 %,0.00752%
same,"Change In Mass (%) - ref, Desorption",[2]; Target RH 30.0 %,0.00292%
same,"Change In Mass (%) - ref, Hysteresis",[2]; Target RH 30.0 %,−0.00527%
same,"Change In Mass (%) - ref, Sorption",[2]; Target RH 30.0 %,0.00819%
same,"Change In Mass (%) - ref, Desorption",[2]; Target RH 35.0 %,0.00393%
same,"Change In Mass (%) - ref, Hysteresis",[2]; Target RH 35.0 %,−0.00449%
same,"Change In Mass (%) - ref, Sorption",[2]; Target RH 35.0 %,0.00841%
same,"Change In Mass (%) - ref, Desorption",[2]; Target RH 40.0 %,0.0055%
same,"Change In Mass (%) - ref, Hysteresis",[2]; Target RH 40.0 %,−0.00314%
same,"Change In Mass (%) - ref, Sorption",[2]; Target RH 40.0 %,0.00864%
same,"Change In Mass (%) - ref, Desorption",[2]; Target RH 45.0 %,0.00673%
same,"Change In Mass (%) - ref, Hysteresis",[2]; Target RH 45.0 %,−0.00202%
same,"Change In Mass (%) - ref, Sorption",[2]; Target RH 45.0 %,0.00875%
same,"Change In Mass (%) - ref, Desorption",[2]; Target RH 50.0 %,0.00763%
same,"Change In Mass (%) - ref, Hysteresis",[2]; Target RH 50.0 %,−0.00191%
same,"Change In Mass (%) - ref, Sorption",[2]; Target RH 50.0 %,0.00954%
same,"Change In Mass (%) - ref, Desorption",[2]; Target RH 55.0 %,0.00853%
same,"Change In Mass (%) - ref, Hysteresis",[2]; Target RH 55.0 %,−0.00123%
same,"Change In Mass (%) - ref, Sorption",[2]; Target RH 55.0 %,0.00976%
same,"Change In Mass (%) - ref, Desorption",[2]; Target RH 60.0 %,0.00909%
same,"Change In Mass (%) - ref, Hysteresis",[2]; Target RH 60.0 %,−0.0009%
same,"Change In Mass (%) - ref, Sorption",[2]; Target RH 60.0 %,0.00998%
same,"Change In Mass (%) - ref, Desorption",[2]; Target RH 65.0 %,0.00954%
same,"Change In Mass (%) - ref, Hysteresis",[2]; Target RH 65.0 %,−0.00056%
same,"Change In Mass (%) - ref, Sorption",[2]; Target RH 65.0 %,0.0101%
same,"Change In Mass (%) - ref, Desorption",[2]; Target RH 70.0 %,0.01066%
same,"Change In Mass (%) - ref, Hysteresis",[2]; Target RH 70.0 %,0.00000%
same,"Change In Mass (%) - ref, Sorption",[2]; Target RH 70.0 %,0.01066%
same,"Change In Mass (%) - ref, Desorption",[2]; Target RH 75.0 %,0.01234%
same,"Change In Mass (%) - ref, Hysteresis",[2]; Target RH 75.0 %,0.00056%
same,"Change In Mass (%) - ref, Sorption",[2]; Target RH 75.0 %,0.01178%
same,"Change In Mass (%) - ref, Desorption",[2]; Target RH 80.0 %,0.01324%
same,"Change In Mass (%) - ref, Hysteresis",[2]; Target RH 80.0 %,0.00034%
same,"Change In Mass (%) - ref, Sorption",[2]; Target RH 80.0 %,0.0129%
same,"Change In Mass (%) - ref, Desorption",[2]; Target RH 85.0 %,0.01481%
same,"Change In Mass (%) - ref, Hysteresis",[2]; Target RH 85.0 %,0.0009%
same,"Change In Mass (%) - ref, Sorption",[2]; Target RH 85.0 %,0.01391%
same,"Change In Mass (%) - ref, Desorption",[2]; Target RH 90.0 %,0.01773%
same,"Change In Mass (%) - ref, Hysteresis",[2]; Target RH 90.0 %,0.00146%
same,"Change In Mass (%) - ref, Sorption",[2]; Target RH 90.0 %,0.01627%
same,"Change In Mass (%) - ref, Desorption",[2]; Target RH 95.0 %,0.02076%
same,"Change In Mass (%) - ref, Sorption",[2]; Target RH 95.0 %,0.02076%
same,moisture picked up (DVS),[2]; at 95% RH,about 0.02%
same,Solid-state stability (HPLC),"[3]; 40° C./0% RH (closed) and 40° C./75% RH (open), dark, up to 10 days",substantially stable
same,0 day % remaining,"[3]; 40° C. (0% RH, closed)",99.65%
same,5 day % remaining,"[3]; 40° C. (0% RH, closed)",101.65%
same,10 day % remaining,"[3]; 40° C. (0% RH, closed)",100.85%
same,0 day % remaining,[3]; 40° C./75% RH (open),99.65%
same,5 day % remaining,[3]; 40° C./75% RH (open),100.66%
same,10 day % remaining,[3]; 40° C./75% RH (open),101.31%
same,Stability compared with other polymorphs (summary),[4],most stable of the polymorphs
